The source made the active and inactive calls. The rule behind the calls is not given here.
Experiments:
Mus musculus [1] = experiment: Acute toxicity in Swiss albino mouse assessed as serum haemoglobin level at 1000 mg/kg, po qd administered as single dose for 7 days (reference value: 13.29 +/- 0.46 g/dl); assay type: organism-based; conditions: in vivo, 168 h
Mus musculus [2] = experiment: Acute toxicity in Swiss albino mouse assessed as serum haemoglobin level at 5 mg/kg, po qd administered as single dose for 7 days (reference value: 13.29 +/- 0.46 g/dl); assay type: organism-based; conditions: in vivo, 168 h
Mus musculus [3] = experiment: Acute toxicity in Swiss albino mouse assessed as serum WBC level at 300 mg/kg, po qd administered as single dose for 7 days (reference value: 8.64 +/- 0.42 10^3/mm3); assay type: organism-based; conditions: in vivo, 168 h
Mus musculus [4] = experiment: Acute toxicity in Swiss albino mouse assessed as serum albumin level at 1000 mg/kg, po qd administered as single dose for 7 days (reference value: 2.49 +/- 0.17 g/dl); assay type: organism-based; conditions: in vivo, 168 h
Mus musculus [5] = experiment: Acute toxicity in Swiss albino mouse assessed as serum SGPT level at 1000 mg/kg, po qd administered as single dose for 7 days (reference value: 23.06 +/- 1.92 U/L); assay type: organism-based; conditions: in vivo, 168 h
Mus musculus [6] = experiment: Acute toxicity in Swiss albino mouse assessed as effect on basophil count up to 1000 mg/kg, po qd administered as single dose for 7 days; assay type: organism-based; conditions: in vivo, 168 h
Mus musculus [7] = experiment: Acute toxicity in Swiss albino mouse assessed as effect on monocyte count up to 1000 mg/kg, po qd administered as single dose for 7 days; assay type: organism-based; conditions: in vivo, 168 h
Mus musculus [8] = experiment: Acute toxicity in Swiss albino mouse assessed as serum ALP level at 300 mg/kg, po qd administered as single dose for 7 days (reference value: 292.13 +/- 40.29 U/L); assay type: organism-based; conditions: in vivo, 168 h
[9] = Antiproliferative activity against human DU145 cells after 48 hrs by SRB assay; assay type: functional, cell-based; conditions: DU-145, 48 h
Mus musculus [10] = experiment: Acute toxicity in Swiss albino mouse assessed as serum triglycerides level at 5 mg/kg, po qd administered as single dose for 7 days (reference value: 107.9 +/- 10.7 mg/dl); assay type: organism-based; conditions: in vivo, 168 h
Mus musculus [11] = experiment: Acute toxicity in Swiss albino mouse assessed as effect on lymphocyte count up to 1000 mg/kg, po qd administered as single dose for 7 days; assay type: organism-based; conditions: in vivo, 168 h
Mus musculus [12] = experiment: Acute toxicity in Swiss albino mouse assessed as serum ALP level at 5 mg/kg, po qd administered as single dose for 7 days (reference value: 292.13 +/- 40.29 U/L); assay type: organism-based; conditions: in vivo, 168 h
Mus musculus [13] = experiment: Acute toxicity in Swiss albino mouse assessed as changes in relative weight of liver up to 1000 mg/kg, po qd administered as single dose for 7 days; assay type: organism-based; conditions: in vivo, 168 h
Mus musculus [14] = experiment: Acute toxicity in Swiss albino mouse assessed as body weight at 300 mg/kg, po qd administered as single dose for 7 days (reference value: 27.73 +/- 0.94 g); assay type: organism-based; conditions: in vivo, 168 h
Mus musculus [15] = experiment: Acute toxicity in Swiss albino mouse assessed as serum triglycerides level at 50 mg/kg, po qd administered as single dose for 7 days (reference value: 107.9 +/- 10.7 mg/dl); assay type: organism-based; conditions: in vivo, 168 h
Mus musculus [16] = experiment: Acute toxicity in Swiss albino mouse assessed as changes in absolute weight of kidney up to 1000 mg/kg, po qd administered as single dose for 7 days; assay type: organism-based; conditions: in vivo, 168 h
[17] = Antiproliferative activity against human MCF7 cells after 48 hrs by SRB assay; assay type: functional, cell-based; conditions: MCF7, 48 h
Mus musculus [18] = experiment: Acute toxicity in Swiss albino mouse assessed as serum WBC level at 5 mg/kg, po qd administered as single dose for 7 days (reference value: 8.64 +/- 0.42 10^3/mm3); assay type: organism-based; conditions: in vivo, 168 h
Mus musculus [19] = experiment: Acute toxicity in Swiss albino mouse assessed as changes in relative weight of brain up to 1000 mg/kg, po qd administered as single dose for 7 days; assay type: organism-based; conditions: in vivo, 168 h
Mus musculus [20] = experiment: Acute toxicity in Swiss albino mouse assessed as changes in absolute weight of brain up to 1000 mg/kg, po qd administered as single dose for 7 days; assay type: organism-based; conditions: in vivo, 168 h
Mus musculus [21] = experiment: Acute toxicity in Swiss albino mouse assessed as changes in relative weight of lungs up to 1000 mg/kg, po qd administered as single dose for 7 days; assay type: organism-based; conditions: in vivo, 168 h
Mus musculus [22] = experiment: Acute toxicity in Swiss albino mouse assessed as changes in relative weight of heart up to 1000 mg/kg, po qd administered as single dose for 7 days; assay type: organism-based; conditions: in vivo, 168 h
FaDu [23] = experiment: Induction of apoptosis in human FADU cells assessed as increase in PARP cleavage at 5 to 10 uM by Western blot method; assay type: functional, cell-based
FaDu [24] = experiment: Inhibition of topoisomerase-2 in human FADU cells at 2 times antiproliferative IC50 after 24 hrs by ELISA relative to control; assay type: cell-based
Mus musculus [25] = experiment: Acute toxicity in Swiss albino mouse assessed as mortality up to 1000 mg/kg, po qd administered as single dose for 7 days; assay type: organism-based; conditions: in vivo, 168 h
Mus musculus [26] = experiment: Acute toxicity in Swiss albino mouse assessed as changes in relative weight of spleen up to 1000 mg/kg, po qd administered as single dose for 7 days; assay type: organism-based; conditions: in vivo, 168 h
Mus musculus [27] = experiment: Acute toxicity in Swiss albino mouse assessed as serum ALP level at 1000 mg/kg, po qd administered as single dose for 7 days (reference value: 292.13 +/- 40.29 U/L); assay type: organism-based; conditions: in vivo, 168 h
Mus musculus [28] = experiment: Acute toxicity in Swiss albino mouse assessed as changes in absolute weight of liver up to 1000 mg/kg, po qd administered as single dose for 7 days; assay type: organism-based; conditions: in vivo, 168 h
Mus musculus [29] = experiment: Acute toxicity in Swiss albino mouse assessed as serum WBC level at 50 mg/kg, po qd administered as single dose for 7 days (reference value: 8.64 +/- 0.42 10^3/mm3); assay type: organism-based; conditions: in vivo, 168 h
Mus musculus [30] = experiment: Acute toxicity in Swiss albino mouse assessed as serum RBC level at 5 mg/kg, po qd administered as single dose for 7 days (reference value: 9.07 +/- 1.13 million/mm3); assay type: organism-based; conditions: in vivo, 168 h
Mus musculus [31] = experiment: Acute toxicity in Swiss albino mouse assessed as effect on neutrophil count up to 1000 mg/kg, po qd administered as single dose for 7 days; assay type: organism-based; conditions: in vivo, 168 h
Mus musculus [32] = experiment: Acute toxicity in Swiss albino mouse assessed as serum creatinine level at 5 mg/kg, po qd administered as single dose for 7 days (reference value: 0.09 +/- 0.01 mg/dl); assay type: organism-based; conditions: in vivo, 168 h
Mus musculus [33] = experiment: Acute toxicity in Swiss albino mouse assessed as serum albumin level at 5 mg/kg, po qd administered as single dose for 7 days (reference value: 2.49 +/- 0.17 g/dl); assay type: organism-based; conditions: in vivo, 168 h
Mus musculus [34] = experiment: Acute toxicity in Swiss albino mouse assessed as serum protein level at 50 mg/kg, po qd administered as single dose for 7 days (reference value: 2.91 +/- 0.31 mg/ml); assay type: organism-based; conditions: in vivo, 168 h
Mus musculus [35] = experiment: Acute toxicity in Swiss albino mouse assessed as serum SGPT level at 5 mg/kg, po qd administered as single dose for 7 days (reference value: 23.06 +/- 1.92 U/L); assay type: organism-based; conditions: in vivo, 168 h
[36] = Antiproliferative activity against human DLD1 cells after 48 hrs by SRB assay; assay type: functional, cell-based; conditions: DLD-1, 48 h
Mus musculus [37] = experiment: Acute toxicity in Swiss albino mouse assessed as serum cholesterol level at 5 mg/kg, po qd administered as single dose for 7 days (reference value: 68.37 +/- 4.42 mg/dl); assay type: organism-based; conditions: in vivo, 168 h

`O=C1C=C(OCc2ccccc2)C(=O)c2ccccc21` gave an Activity (Mus musculus [1]) of 13.28 g/dL, an Activity (Mus musculus [2]) of 12.65 g/dL and an Activity (Mus musculus [3]) of 8.52 ×10³ /mm3. For the same compound, the Activity (Mus musculus [4]) was 2.88 g/dL, the Activity (Mus musculus [5]) was 25 U/L and the Activity (Mus musculus [6]) was “Non-Toxic”. For the same compound, the Activity (Mus musculus [7]) was “Non-Toxic”, the Activity (Mus musculus [8]) was 386.48 U/L and the IC50 [9] was 10.6 µM. The Activity (Mus musculus [10]) was 130.9 mg/dL, the Activity (Mus musculus [11]) was “Non-Toxic” and the Activity (Mus musculus [12]) was 307.74 U/L. The Activity (Mus musculus [13]) was “Non-Toxic”, the Activity (Mus musculus [14]) was 27.09 g and the Activity (Mus musculus [15]) was 112.9 mg/dL. The Activity (Mus musculus [16]) was “Non-Toxic”, the IC50 [17] was 13.9 µM and the Activity (Mus musculus [18]) was 8.66 ×10³ /mm3. The Activity (Mus musculus [19]) was “Non-Toxic”, the Activity (Mus musculus [20]) was “Non-Toxic” and the Activity (Mus musculus [21]) was “Non-Toxic”. For the same compound, the Activity (Mus musculus [22]) was “Non-Toxic”, the Activity (FaDu [23]) was “Active” and the inhibition (FaDu [24]) was 36.6%. The Activity (Mus musculus [25]) was “Non-Toxic”, the Activity (Mus musculus [26]) was “Non-Toxic” and the Activity (Mus musculus [27]) was 385.91 U/L. The Activity (Mus musculus [28]) was “Non-Toxic”, the Activity (Mus musculus [29]) was 8.38 ×10³ /mm3 and the Activity (Mus musculus [30]) was 8.67 million/mm3. The Activity (Mus musculus [31]) was “Non-Toxic”, the Activity (Mus musculus [32]) was 0.14 mg/dL and the Activity (Mus musculus [33]) was 2.56 g/dL. It also gave an Activity (Mus musculus [34]) of 2.92 mg/mL, an Activity (Mus musculus [35]) of 19.16 U/L and an IC50 [36] of 16.2 µM. For the same compound, the Activity (Mus musculus [37]) was 65.28 mg/dL.

Reference: ChEMBL document CHEMBL3877316, “Synthesis of pharmacologically important naphthoquinones and anticancer activity of 2-benzyllawsone through DNA topoisomerase-II inhibition” (Bioorg Med Chem, 2017)
